In patent publication US10548883B2, “Benzotriazole-derived α and β-unsaturated amide compound used as TGF-β RI inhibitor” (GENFLEET THERAPEUTICS (SHANGHAI) INC., priority 2016, dated 2020):
Where “and” joins values, the source holds several entries; their conditions need not be identical. Identical values can stand only once.

What was measured:
[1] = test system: mouse breast cancer 4T1 cells; experiment: Tumor cell metastasis inhibition in BALB/c mouse orthotopic transplantation model of mouse breast cancer 4T1 cells; type: in vivo; conditions: 75 mg/kg PO once a day × 32
Description: Fluorescently labeled mouse breast cancer 4T1-Luc cells were expanded in vitro. Before the cells were collected, the mice were anesthetized with intraperitoneal injection of sodium pentobarbital. After anesthetized mice were fixed, the abdominal skin was disinfected with 70% alcohol. 100 uL of phosphate buffer (containing 0.5×10^6 4T1-luc2 cells) was inoculated into the left side of the fourth pair of abdominal mammary fat pads in mice, and the incision was sutured to disinfect the skin. The animals are kept warm with a warm blanket, observed until they wake up and put back in their cages. 0.1 mg/kg buprenorphine for pain relief was subcutaneously injected 30 min before surgery and 6 hours after surgery.
On the third day after modeling, the animals were subjected to bioluminescence detection by infrared data imaging, randomly grouped according to the fluorescence values, and administered according to the following experimental protocol, see Table 5.
To observe the inhibitory effect of embodiment 1 on tumor growth and metastasis, the experimental endpoint was designed to be 30-35 days after administration, with reference to historical data of the model. At the end of the experiment, the in situ tumor and various organ tissues were dissected, the tumor was weighed, and the fluorescence intensity of each organ was detected by IVIS fluorescence. Growth inhibition of orthotopic tumors can be compared by the weight of the in situ tumor in the experimental endpoint, and the inhibition curve is generated from the tumor volume measurement data twice a week during the experiment. The inhibition of tumor metastasis was determined by the presence or absence of fluorescence detection of each organ and the analysis of relative fluorescence intensity.
At the end of the experiment, the tumor weight will be detected and the relative tumor growth rate T/C (%) will be calculated; the tumor volume is calculated as: V=0.5a×b^2, and a and b represent the long and short diameters of the tumor, respectively. At the same time, the lung, liver, spleen, kidney, intestine and left upper limb were stripped, and fluorescence was detected to determine whether there was metastasis and metastasis intensity and ratio.
The antitumor effect of the compound was evaluated by the tumor growth inhibition rate TGI (%) or the relative tumor growth rate T/C (%).
Calculation of TGI (%): TGI (%)=[(1−mean tumor volume at the end of administration of a treatment group−mean tumor volume at the start of administration of the treatment group))/(mean tumor volume at the end of treatment of the solvent control group−mean tumor volume at the start of administration of the solvent control group)]×100%.
Relative tumor growth rate T/C (%) calculation: T/C(%)=Tt(treatment group)/Ct(control group)×100%, Tt is the average tumor volume at a certain measurement, and Ct takes the same day data.
The experimental results were statistically analyzed using one-way ANOVA. If there is a significant difference in F values, multiple comparisons should be made after ANOVA analysis. All data in this experiment were analyzed using SPSS 17.0. A significant difference was considered at p<0.05.
At the end of the experiment, each organ tissue was peeled off, and fluorescence imaging and fluorescence intensity value recording were measured by IVIS for 40 sec exposure within 8 min. The fluorescence imaging results of the tested tissues of the 10 animals excised by the maximum and minimum values are shown in Table 6.
According to the experimental end point, the fluorescence intensity of each group of organs was normalized by the control group, and the relative fluorescence intensity ratio of each group of organs was obtained. The ratio reflects the level of metastatic intensity on the corresponding organs.

[2] = test system: CT-26 cells; experiment: Tumor cell proliferation inhibition in BALB/c mouse model of subcutaneously transplanted CT-26 cells, alone or combined with BioXcell-mPD-L1; type: in vivo; conditions: for Tumor volume: average ± SEM, small molecules 75 mg/kg PO twice a day, BioXcell-mPD-L1 10 mg/kg IP twice a week
Description: The following table lists the animal grouping and dosing regimen of embodiment 1, the positive reference compound LY2157299 and the BioXcell PD-L1 monoclonal antibody (BioXcell-mPD-L1), which are used alone or in combination in vivo.
Mouse colon cancer CT-26 cells were cultured in vitro in a single layer, and culture conditions is RPMI1640 medium (Medium No. 1640, Roswell Parker Memorial Institute) supplemented with 10% fetal bovine serum at 37° C., 5% CO2. Passage was routinely digested with trypsin-EDTA twice a week. When the cell saturation is 80%-90%, the cells are collected, counted, and inoculated.
0.1 mL (1×10^5) CT-26 cells were subcutaneously inoculated into the right back of each BALB/c mouse. The mice were administered in groups according to the body weight of the mice on the second day after cell inoculation.
The experimental indicator is to investigate whether tumor growth is inhibited, delayed or cured. Tumor diameters were measured with Vernier calipers twice a week. The tumor volume is calculated as: V=0.5a×b^2, and a and b represent the long and short diameters of the tumor, respectively.
The antitumor effect of the compound was evaluated by TGI (%) or tumor proliferation rate T/C (%). TGI (%) reflects the tumor growth inhibition rate. Calculation of TGI (%): TGI (%)=[(1-(mean tumor volume at the end of administration of a treatment group—mean tumor volume at the start of administration of the treatment group))/(mean tumor volume at the end of treatment of the solvent control group)—mean tumor volume at the start of treatment of the solvent control group)]×100%.
Tumor proliferation rate T/C (%): The formula is as follows: T/C %=T/C×100% (T: treatment group; C: negative control group).
Tumor weights were measured after the end of the experiment and the percentage of T/Cweight was calculated. Tweight and Cweight represent the tumor weights of the drug-administered group and the vehicle control group, respectively.
Statistical analysis, including mean and standard error (SEM) of tumor volume at each time point for each group (see Table 4 for specific data). […] T-test was used for comparison between the two groups, and one-way analysis of variance was used for comparison between three or more groups. If there was a significant difference in F values, the Gass-Howell method was used to test. If there is no significant difference in F values, the Dunnet (2-sided) method is used for analysis. All data analysis was performed with SPSS 17.0. A significant difference was considered at p<0.05.

[3] = animals with metastasis/animals in group
[4] = average organ fluorescence relative to control group

Cc1cccc(-c2nn3c(c2-c2ccc4ncnn4c2/C=C/C(N)=O)CCC3)n1 [Embodiment 1]
Inhibition of metastasis of 4T1 (conclusion) [1]: significantly inhibited the metastasis of 4T1 in liver, spleen, kidney and intestine
Metastasis rate, intestine [1, 3]: 60%
Metastasis rate, kidney [1, 3]: 20%
Metastasis rate, liver [1, 3]: 50%
Metastasis rate, lung [1, 3]: 100%
Metastasis rate, spleen [1, 3]: 0%
Metastasis rate, upper limb [1, 3]: 90%
Metastasis level, intestine [1, 4]: 1%
Metastasis level, kidney [1, 4]: 67%
Metastasis level, liver [1, 4]: 10%
Metastasis level, lung [1, 4]: 9%
Metastasis level, spleen [1, 4]: 0%
Metastasis level, upper limb [1, 4]: 12%
Tumor volume ([2]; day 10 of administration): 102 ± 19 mm^3
Tumor volume ([2]; day 13 of administration): 339 ± 89 mm^3
Tumor volume ([2]; day 15 of administration): 552 ± 147 mm^3
Tumor volume ([2]; day 17 of administration): 874 ± 240 mm^3
Tumor volume ([2]; day 20 of administration): 1331 mm^3 and 1331 ± 394 mm^3
Tumor proliferation rate T/C ([2]; twenty days after start of administration, 75 mg/kg PO and/or 10 mg/kg IP): 51%
Antitumor effect compared with the solvent control group ([2]; twenty days after start of administration, 75 mg/kg and/or 10 mg/kg): no significant antitumor effect
